Test results reported in EP2966448B1, “METHOD FOR THE PREDICTION OR PROGNOSIS OF THE RESPONSE OF A HUMAN SUBJECT SUFFERING FROM CANCER TO TREATMENT WITH AN ANTAGONIST OF THE NK1 RECEPTOR” (priority 2013, dated 2014).

Legend:
[1] = test system: Non Hodgkin Lymphoma B (diffuse B cell lymphoma); test: Inhibition of primary tumor cell cultures vs Kras mutation (Example 2); assay type: cell-based, human; settings: Non Hodgkin Lymphoma B (diffuse B cell lymphoma), 100 micromolar
Experimental: (§1) Cell cultures. To obtain tumor cells from human primary tumors we used the method described in De Bari et al. (De Bari et al. 2001). Briefly, small pieces of the tumors were digested into a hyaluronidase solution (Sigma-Aldrich, USA) at a concentration of 1 mg/ml during 15 minutes at 37°C, and then they were treated with 6 mg/ml of collagenase type IV (Invitrogen) during 2 hours at 37°C. Consecutively, cells were washed, and resuspended in the DMEM culture medium with high concentration of glucose (Dulbecco's Modified Eagle's Medium, Invitrogen) supplemented with 1% of antibiotics-antimycotics (Invitrogen) and with 1% of sodium pyruvate (Invitrogen), and the cells were seeded in culture slides at a concentration of 10.000 cells per square centimeter. When cells reached confluence, the adherent cells were separated using sterile trypsin at 0,5% (Invitrogen) and they were used among passages 3 and 9. For the assays shown next, tumor cells were seeded on slides at a concentration of 25.000 cells per well. A total of 6 wells containing the tumor cells were used as survival control. […] All the cultures were kept during 48 hours and later on recollected for their analysis.
(§2) In each case the presence or not of mutations in K-ras gene was determined.
(§3) To determine the existence of mutations in the K-ras gene DNA from cancer tumor cells was extracted from samples obtained from the different cancer tumor cells, using DNA extraction kits from Takara (Madison, WI, US) or Ambion (Huntingdon, Cambridgeshire, United Kingdom), following the manufacturer's instructions, and as it has been previously published (Di Fiore F, et al. 2007). Consecutively it was analyzed by sequencing the exon 2 of the KRAS gene, , by means of PCR amplification from previously extracted cancer tumor DNA, using the following sense primer (SEQ ID NO. 15): 5'-[sequence]-3' and anti-sense primer (SEQ ID NO. 16): 5'-[sequence]-3'. After the purification using the Qiagen extraction kit, the PCR products were sequenced using the Big Dye Terminator Kit V3.1 (Applied Biosystems, Foster City, CA, U.S.) and an ABI Prism 377 or 3100 DNA sequencer (Applied Biosystems). The presence of a heterozygous mutation in the KRAS gene in cancer tumor cells of the cultures was defined as the appearance of a mutant peak of a height of at least a third of the wild type. All the sequence analysis were executed at least twice in two independent PCR.
(§4) The percentages of inhibition are expressed in percentage of variation in relation to control ± standard deviation.

[2] = test system: Non Hodgkin Lymphoma T (diffuse T cell lymphoma); test: as above; assay type: cell-based, human; settings: Non Hodgkin Lymphoma T (diffuse T cell lymphoma), 100 micromolar
Experimental: as §1, §2, §3, §4

Burkitt Lymphoma = test: as above; assay type: cell-based, human; settings: Burkitt Lymphoma, 100 micromolar
Experimental: as §1, §2, §3
The antibody against NK1 receptor (Table 16) was used at 1/50 concentration. The percentages of inhibition are expressed in percentage of variation in relation to control ± standard deviation.

[3] = test system: human primary tumor cells; test: Inhibition of primary tumor cell cultures vs absence or presence of ERK  protein (Example 3; tumor type per table line); assay type: cell-based; settings: for Percentage of inhibition of cell cultures: 100 micromolar
Experimental: (§5) Cell cultures. […] Briefly, small pieces of the tumors were digested into a hyaluronidase solution (Sigma-Aldrich, USA) at a concentration of 1 mg/ml during 15 minutes at 37°C, and then they were treated with 6 mg/ml of collagenase type IV (Invitrogen) during 2 hours at 37°C. Consecutively, cells were washed, and resuspended in the DMEM culture medium with high concentration of glucose (Dulbecco's Modified Eagle's Medium, Invitrogen) supplemented with 1% of antibiotics-antimycotics (Invitrogen) and with 1% of sodium pyruvate (Invitrogen), and the cells were seeded in culture slides at a concentration of 10.000 cells per square centimeter. When cells reached confluence, the adherent cells were separated using sterile trypsin at 0,5% (Invitrogen) and they were used among passages 3 and 9. For the assays shown next, tumor cells were seeded on slides at a concentration of 25.000 cells per well. A total of 6 wells containing the tumor cells were used as survival control. […] All the cultures were kept during 48 hours and later on recollected for their analysis.
Consecutively, the cells were placed in cultures in the presence of several antagonists of the NK1 receptor.
In each case it was determined the presence or absence of the downstream effector in the MAP Kinases ERK pathway.
To determine the presence of the ERK protein, it was performed a Western Blot technique, using as primary antibody: Phospho-p44/42 MAPK (Erk1/2) (Thr202/Tyr204) (D13.14.4E) XP® Rabbit mAb (4370, Cell Signalling). To determine the presence of the MEK protein, it was performed the Western Blot technique, using as primary antibody Phospho-MEK1/2 (Ser217/221) (9121, Cell Signalling).
The antibody against NK1 receptor (Table 21) was used at 1/50 concentration. The percentages of inhibition are expressed in percentages of variation in relation to control ± standard deviation.

[4] = test system: human primary tumor cells; test: Inhibition of primary tumor cell cultures vs absence or presence of AKT protein (Example 4; tumor type per table line); assay type: cell-based; settings: cancer cell cultures showing more presence of AKT, compared; non-peptidic antagonists 100 micromolar, antibody 1/50
Experimental: as §5
Afterwards, the cells were cultured in presence of several antagonists of the NK1 receptor.
In each case it was determined the presence or absence of the AKT protein effector downstream in the PI3 Kinases pathway.
To determine the presence of the AKT protein in the different cultures Western Blot technique was performed (following the description in example 1-Western Blot section), but using as primary antibody with reference: Akt (pan) (11E7) Rabbit mAb (4685, Cell Signalling).
The antibody against NK1 receptor (Table 26) was used at 1/50 concentration. The percentages of inhibition are expressed in percentage of variation in relation to control ± standard deviation.

[5] = test system: human primary tumor cells; test: Inhibition of primary tumor cell cultures vs low or high expression of the truncated form of NK1 receptor (Example 5; tumor type per table line); assay type: cell-based; settings: for Percentage of inhibition of cell cultures: 100 micromolar
Experimental: as §1
The presence of the truncated form of NK1 receptor was determined and then cells were cultured in presence of several antagonists of the NK1 receptor.
In each case the presence of the truncated form of the NK1 receptor was determined.
To determine the presence of the truncated form of the gene of NK1 receptor PCR technique was performed (Polymerase Chain Reaction). The extraction of RNA, amplifications of PCR, cycle conditions and quantitative analysis were executed as it has been previously described. The specific primers were the following: For the full-length NK1R receptor (NM_001058.3; forward (SEQ ID NO: 17)-: 5'-[sequence]-3 ' and reverse- (SEQ ID NO:18): 5'-[sequence]-3') and for the truncated NK1receptor (NM_015727.2; forward (SEQ ID NO: 19): 5'-[sequence]-3 and reverse (SEQ ID NO;20): 5'-[sequence]-3').
Cases were distributed in two groups: • Group A -low expression of the truncated form of NK1 receptor- for those cases wherein the expression of the truncated form of NK1 receptor was less than double the expression of the full length form of such receptor. • Group B -high expression of the truncated form of NK1 receptor- for those cases wherein the expression of the truncated form of the NK1 receptor was higher than double the expression of the full length form of such receptor.
The percentages of inhibition are expressed in percentage of variation in relation to the control ± standard deviation.

[6] = Cases with Kras non-mutated (wild type)

SMILES: Cc1cc(F)ccc1[C@H]1CNCCN1C(=O)N(C)[C@H](C)c1cc(C(F)(F)F)cc(C(F)(F)F)c1 [Vestipitant]
- Percentage of inhibition of cell cultures ([1]; Cases with Kras mutated): 24±4 percentage
- Percentage of inhibition of cell cultures [1, 6]: 97±6 percentage
- Percentage of inhibition of cell cultures ([2]; Cases with Kras mutated): 25±5 percentage
- Percentage of inhibition of cell cultures [2, 6]: 96±5 percentage
- Percentage of inhibition of cell cultures (Burkitt Lymphoma; Cases with Kras mutated): 24±3 percentage
- Percentage of inhibition of cell cultures (Burkitt Lymphoma; [6]): 95±3 percentage
- Percentage of inhibition of cell cultures ([3]; Breast carcinoma (ductal adenocarcinoma), cases with presence of ERK): 94±3 percentage
- Percentage of inhibition of cell cultures ([3]; Breast carcinoma (ductal adenocarcinoma), cases without presence of ERK): 26±4 percentage
- Percentage of inhibition of cell cultures ([3]; Burkitt Lymphoma, cases with presence of ERK): 93±5 percentage
- Percentage of inhibition of cell cultures ([3]; Burkitt Lymphoma, cases without presence of ERK): 26±4 percentage
- Percentage of inhibition of cell cultures ([3]; Carcinoma of the uterine cervix (Squamous cell carcinoma), cases with presence of ERK): 94±4 percentage
- Percentage of inhibition of cell cultures ([3]; Carcinoma of the uterine cervix (Squamous cell carcinoma), cases without presence of ERK): 29±3 percentage
- Percentage of inhibition of cell cultures ([3]; Colon carcinoma (Adenocarcinoma), cases with presence of ERK): 94±3 percentage
- Percentage of inhibition of cell cultures ([3]; Colon carcinoma (Adenocarcinoma), cases without presence of ERK): 23 percentage
- Percentage of inhibition of cell cultures ([3]; Endometrium carcinoma, cases with presence of ERK): 93±3 percentage
- Percentage of inhibition of cell cultures ([3]; Endometrium carcinoma, cases without presence of ERK): 28±5 percentage
- Percentage of inhibition of cell cultures ([3]; Gastric carcinoma (Adenocarcinoma), cases with presence of ERK): 95±3 percentage
- Percentage of inhibition of cell cultures ([3]; Gastric carcinoma (Adenocarcinoma), cases without presence of ERK): 24±4 percentage
- Percentage of inhibition of cell cultures ([3]; Glioma (astrocytoma), cases with presence of ERK): 95±3 percentage
- Percentage of inhibition of cell cultures ([3]; Glioma (astrocytoma), cases without presence of ERK): 27±4 percentage
- Percentage of inhibition of cell cultures ([3]; Lung carcinoma (non small cell lung carcinoma), cases with presence of ERK): 95±5 percentage
- Percentage of inhibition of cell cultures ([3]; Lung carcinoma (non small cell lung carcinoma), cases without presence of ERK): 26±2 percentage
- Percentage of inhibition of cell cultures ([3]; Lung carcinoma (small cell lung carcinoma), cases with presence of ERK): 96±6 percentage
- Percentage of inhibition of cell cultures ([3]; Lung carcinoma (small cell lung carcinoma), cases without presence of ERK): 27±4 percentage
- Percentage of inhibition of cell cultures ([3]; Melanoma (Nodular Melanoma), cases with presence of ERK): 94±5 percentage
- Percentage of inhibition of cell cultures ([3]; Melanoma (Nodular Melanoma), cases without presence of ERK): 25±3 percentage
- Percentage of inhibition of cell cultures ([3]; Non Hodgkin Lymphoma B (diffuse B cell lymphoma), cases with presence of ERK): 96±3 percentage
- Percentage of inhibition of cell cultures ([3]; Non Hodgkin Lymphoma B (diffuse B cell lymphoma), cases without presence of ERK): 24±4 percentage
- Percentage of inhibition of cell cultures ([3]; Non Hodgkin Lymphoma T (diffuse T cell lymphoma), cases with presence of ERK): 92±4 percentage
- Percentage of inhibition of cell cultures ([3]; Non Hodgkin Lymphoma T (diffuse T cell lymphoma), cases without presence of ERK): 25±2 percentage
- Percentage of inhibition of cell cultures ([3]; Ovarian carcinoma (Adenocarcinoma), cases with presence of ERK): 95±5 percentage
- Percentage of inhibition of cell cultures ([3]; Ovarian carcinoma (Adenocarcinoma), cases without presence of ERK): 24±2 percentage
- Percentage of inhibition of cell cultures ([3]; Pancreatic carcinoma (Adenocarcinoma), cases with presence of ERK): 93±4 percentage
- Percentage of inhibition of cell cultures ([3]; Pancreatic carcinoma (Adenocarcinoma), cases without presence of ERK): 24±34 percentage
- Percentage of inhibition of cell cultures ([3]; Prostate carcinoma, cases with presence of ERK): 94±4 percentage
- Percentage of inhibition of cell cultures ([3]; Prostate carcinoma, cases without presence of ERK): 22±3 percentage
- Percentage of inhibition of cell cultures ([3]; Renal cell carcinoma (clear cell renal cell carcinoma), cases with presence of ERK): 92±2 percentage
- Percentage of inhibition of cell cultures ([3]; Renal cell carcinoma (clear cell renal cell carcinoma), cases without presence of ERK): 25±2 percentage
- Percentage of inhibition of cell cultures ([3]; Thyroid carcinoma (follicular carcinoma), cases with presence of ERK): 94±4 percentage
- Percentage of inhibition of cell cultures ([3]; Thyroid carcinoma (follicular carcinoma), cases without presence of ERK): 25±3 percentage
- Percentage of inhibition of cell cultures ([3]; Thyroid carcinoma (papillary carcinoma), cases with presence of ERK): 96±3 percentage
- Percentage of inhibition of cell cultures ([3]; Thyroid carcinoma (papillary carcinoma), cases without presence of ERK): 26±4 percentage
- Percentage of inhibition of cell cultures ([3]; Undifferentiated Pleomorphic Sarcoma (malignant fibrous histiocytoma grade 3), cases with presence of ERK): 93±4 percentage
- Percentage of inhibition of cell cultures ([3]; Undifferentiated Pleomorphic Sarcoma (malignant fibrous histiocytoma grade 3), cases without presence of ERK): 26±2 percentage
- Percentage of inhibition of cell cultures ([3]; Urinary bladder carcinoma (transitional cell carcinoma), cases with presence of ERK): 97±5 percentage
- Percentage of inhibition of cell cultures ([3]; Urinary bladder carcinoma (transitional cell carcinoma), cases without presence of ERK): 24±5 percentage
- inhibition of cell proliferation ([3]; cancer cell cultures that show more presence of ERK, compared, non-peptidic antagonists 100 micromolar, antibody 1/50): higher inhibition
- inhibition of cell proliferation [4]: higher inhibition
- Percentage of inhibition of cell cultures ([5]; Glioma (astrocytoma), Cases with high expression of the truncated form of NK1 receptor (Group B)): 94±5 percentage
- Percentage of inhibition of cell cultures ([5]; Glioma (astrocytoma), Cases with low expression of the truncated form of NK1 receptor (Group A)): 25±5 percentage
- Percentage of inhibition of cell cultures ([5]; Lung carcinoma (non small cell lung carcinoma), Cases with high expression of the truncated form of NK1 receptor (Group B)): 94±4 percentage
- Percentage of inhibition of cell cultures ([5]; Lung carcinoma (non small cell lung carcinoma), Cases with low expression of the truncated form of NK1 receptor (Group A)): 26±4 percentage
- Percentage of inhibition of cell cultures ([5]; Melanoma (Nodular Melanoma), Cases with high expression of the truncated form of NK1 receptor (Group B)): 96±4 percentage
- Percentage of inhibition of cell cultures ([5]; Melanoma (Nodular Melanoma), Cases with low expression of the truncated form of NK1 receptor (Group A)): 24±5 percentage
- Percentage of inhibition of cell cultures ([5]; Non Hodgkin Lymphoma B (diffuse B cell lymphoma), Cases with high expression of the truncated form of NK1 receptor (Group B)): 98±5 percentage
- Percentage of inhibition of cell cultures ([5]; Non Hodgkin Lymphoma B (diffuse B cell lymphoma), Cases with low expression of the truncated form of NK1 receptor (Group A)): 23±5 percentage
- Percentage of inhibition of cell cultures ([5]; Non Hodgkin Lymphoma T (diffuse T cell lymphoma), Cases with high expression of the truncated form of NK1 receptor (Group B)): 98±4 percentage
- Percentage of inhibition of cell cultures ([5]; Non Hodgkin Lymphoma T (diffuse T cell lymphoma), Cases with low expression of the truncated form of NK1 receptor (Group A)): 23±4 percentage
- Percentage of inhibition of cell cultures ([5]; Prostate carcinoma, Cases with high expression of the truncated form of NK1 receptor (Group B)): 95±6 percentage
- Percentage of inhibition of cell cultures ([5]; Prostate carcinoma, Cases with low expression of the truncated form of NK1 receptor (Group A)): 24±6 percentage
- Percentage of inhibition of cell cultures ([5]; Thyroid carcinoma (follicular carcinoma), Cases with high expression of the truncated form of NK1 receptor (Group B)): 95±5 percentage
- Percentage of inhibition of cell cultures ([5]; Thyroid carcinoma (follicular carcinoma), Cases with low expression of the truncated form of NK1 receptor (Group A)): 27±3 percentage
- Percentage of inhibition of cell cultures ([5]; Thyroid carcinoma (papillary carcinoma), Cases with high expression of the truncated form of NK1 receptor (Group B)): 96±6 percentage
- Percentage of inhibition of cell cultures ([5]; Thyroid carcinoma (papillary carcinoma), Cases with low expression of the truncated form of NK1 receptor (Group A)): 26±5 percentage
- Percentage of inhibition of cell cultures ([5]; Undifferentiated Pleomorphic Sarcoma (malignant fibrous histiocytoma grade 3), Cases with high expression of the truncated form of NK1 receptor (Group B)): 95±3 percentage
- Percentage of inhibition of cell cultures ([5]; Undifferentiated Pleomorphic Sarcoma (malignant fibrous histiocytoma grade 3), Cases with low expression of the truncated form of NK1 receptor (Group A)): 26±4 percentage
- Percentage of inhibition of cell cultures ([5]; Urinary bladder carcinoma (transitional cell carcinoma), Cases with high expression of the truncated form of NK1 receptor (Group B)): 94±5 percentage
- Percentage of inhibition of cell cultures ([5]; Urinary bladder carcinoma (transitional cell carcinoma), Cases with low expression of the truncated form of NK1 receptor (Group A)): 25±4 percentage
- inhibition of cell proliferation ([5]; cancer cell cultures that show more expression of the truncated form of NK1 receptor, compared, non-peptidic antagonists 100 micromolar, antibody 1/50): higher inhibition
